Experimental data taken from ChEMBL document CHEMBL1147732, “Novel tacrine-melatonin hybrids as dual-acting drugs for Alzheimer disease, with improved acetylcholinesterase inhibitory and antioxidant properties” (J Med Chem, 2006).

Key:
Acetylcholinesterase [1] = molecular target: T1, Acetylcholinesterase (Bos taurus, UniProt P23795)
T1 sequence (P23795 whole entry): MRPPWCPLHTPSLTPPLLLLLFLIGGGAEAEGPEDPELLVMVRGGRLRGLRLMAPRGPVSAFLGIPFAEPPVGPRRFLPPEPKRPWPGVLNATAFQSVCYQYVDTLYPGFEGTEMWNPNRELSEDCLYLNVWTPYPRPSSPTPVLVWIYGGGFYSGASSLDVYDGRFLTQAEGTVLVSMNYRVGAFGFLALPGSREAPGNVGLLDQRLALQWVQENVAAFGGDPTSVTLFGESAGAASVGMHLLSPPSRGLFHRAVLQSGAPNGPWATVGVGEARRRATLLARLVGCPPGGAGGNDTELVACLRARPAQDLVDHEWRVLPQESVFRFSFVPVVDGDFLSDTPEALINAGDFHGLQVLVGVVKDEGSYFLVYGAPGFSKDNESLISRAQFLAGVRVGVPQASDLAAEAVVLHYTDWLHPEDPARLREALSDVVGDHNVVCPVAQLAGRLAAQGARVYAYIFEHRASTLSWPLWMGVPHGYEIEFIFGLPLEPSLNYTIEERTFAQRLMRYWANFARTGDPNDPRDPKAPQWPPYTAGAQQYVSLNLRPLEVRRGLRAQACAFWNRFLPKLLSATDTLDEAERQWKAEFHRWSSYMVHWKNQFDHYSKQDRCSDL
Description: Inhibition of AchE from bovine erythrocytes

Butyrylcholinesterase = Butyrylcholinesterase (Equus caballus, UniProt Q9N1N9)
Butyrylcholinesterase, sequence (Q9N1N9 whole entry): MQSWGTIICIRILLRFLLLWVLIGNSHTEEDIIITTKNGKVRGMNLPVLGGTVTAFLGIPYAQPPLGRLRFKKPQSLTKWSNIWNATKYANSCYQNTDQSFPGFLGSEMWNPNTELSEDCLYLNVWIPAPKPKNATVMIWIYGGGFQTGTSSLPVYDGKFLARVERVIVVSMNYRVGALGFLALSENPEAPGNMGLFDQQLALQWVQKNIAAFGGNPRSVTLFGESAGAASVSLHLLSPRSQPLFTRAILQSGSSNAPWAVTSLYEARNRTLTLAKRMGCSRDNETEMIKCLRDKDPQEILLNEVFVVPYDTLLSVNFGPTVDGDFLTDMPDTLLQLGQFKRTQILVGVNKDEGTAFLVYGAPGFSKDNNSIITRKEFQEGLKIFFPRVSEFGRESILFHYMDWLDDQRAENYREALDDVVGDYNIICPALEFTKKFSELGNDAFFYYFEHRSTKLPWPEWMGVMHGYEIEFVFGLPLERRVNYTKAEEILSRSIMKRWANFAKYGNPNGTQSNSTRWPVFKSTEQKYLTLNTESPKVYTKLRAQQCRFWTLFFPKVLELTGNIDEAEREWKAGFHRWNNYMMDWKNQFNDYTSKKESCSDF
Description: Inhibition of BuChE from horse serum

in vitro = conditions: pig, PAMPA
Description: Permeability in BBB by PAMPA using a lipid extract of porcine brain

Acetylcholinesterase [2] = molecular target: Acetylcholinesterase (Homo sapiens, UniProt P22303)
Acetylcholinesterase (Homo sapiens, UniProt P22303), sequence (P22303 whole entry): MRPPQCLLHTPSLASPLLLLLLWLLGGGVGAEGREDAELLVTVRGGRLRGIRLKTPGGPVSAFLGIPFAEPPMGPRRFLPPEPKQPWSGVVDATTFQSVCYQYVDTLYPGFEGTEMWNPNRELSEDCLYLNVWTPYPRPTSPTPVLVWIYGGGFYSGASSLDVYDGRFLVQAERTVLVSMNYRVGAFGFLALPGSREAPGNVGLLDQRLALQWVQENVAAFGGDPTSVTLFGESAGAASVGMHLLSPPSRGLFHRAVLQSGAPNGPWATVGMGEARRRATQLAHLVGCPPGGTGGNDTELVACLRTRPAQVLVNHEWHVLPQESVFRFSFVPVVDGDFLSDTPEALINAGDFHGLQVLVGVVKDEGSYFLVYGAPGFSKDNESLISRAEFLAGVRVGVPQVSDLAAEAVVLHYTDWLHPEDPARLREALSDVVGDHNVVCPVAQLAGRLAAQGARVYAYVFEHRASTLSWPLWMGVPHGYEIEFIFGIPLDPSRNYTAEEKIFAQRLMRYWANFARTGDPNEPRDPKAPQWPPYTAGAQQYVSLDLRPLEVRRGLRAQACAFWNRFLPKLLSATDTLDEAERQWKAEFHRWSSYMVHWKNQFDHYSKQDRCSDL

Cholinesterase = Cholinesterase (Homo sapiens, UniProt P06276)
Cholinesterase, sequence (P06276 whole entry): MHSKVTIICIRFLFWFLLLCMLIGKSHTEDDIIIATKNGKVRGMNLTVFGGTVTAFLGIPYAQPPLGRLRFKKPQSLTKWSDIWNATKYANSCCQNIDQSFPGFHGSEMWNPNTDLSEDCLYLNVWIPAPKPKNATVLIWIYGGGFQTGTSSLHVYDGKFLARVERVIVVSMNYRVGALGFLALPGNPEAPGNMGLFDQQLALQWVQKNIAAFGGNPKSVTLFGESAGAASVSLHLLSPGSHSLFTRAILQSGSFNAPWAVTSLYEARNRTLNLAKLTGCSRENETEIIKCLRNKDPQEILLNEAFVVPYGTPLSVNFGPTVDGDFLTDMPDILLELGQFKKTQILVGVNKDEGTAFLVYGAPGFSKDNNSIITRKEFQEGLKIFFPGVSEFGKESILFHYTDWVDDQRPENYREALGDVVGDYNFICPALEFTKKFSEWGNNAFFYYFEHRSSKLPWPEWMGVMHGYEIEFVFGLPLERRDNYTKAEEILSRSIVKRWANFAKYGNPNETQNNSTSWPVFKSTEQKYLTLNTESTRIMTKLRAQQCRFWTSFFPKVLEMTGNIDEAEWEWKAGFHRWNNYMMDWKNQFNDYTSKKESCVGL
Description: Inhibition of human BuChE

Structure (SMILES): COc1ccc2[nH]cc(CCNC(=O)CCCCCNc3c4c(nc5ccccc35)CCCC4)c2c1
- IC50 (Acetylcholinesterase [1]): 9 nM
- IC50 (Butyrylcholinesterase): 2 nM
- Papp (in vitro): 77 nm/s

Structure (SMILES): O=C(CCCCCNc1c2c(nc3cc(Cl)cc(Cl)c13)CCCC2)NCCc1c[nH]c2ccccc12
- IC50 (Acetylcholinesterase [1]): 3.5 nM
- IC50 (Butyrylcholinesterase): 8.2 nM
- Papp (in vitro): 84 nm/s

Structure (SMILES): O=C(CCCCCCNc1c2c(nc3cc(Cl)cc(Cl)c13)CCCC2)NCCc1c[nH]c2ccccc12
- IC50 (Acetylcholinesterase [1]): 2 nM
- IC50 (Acetylcholinesterase [2]): 0.008 nM
- IC50 (Cholinesterase): 7.8 nM
- IC50 (Butyrylcholinesterase): 85 nM

Structure (SMILES): O=C(CCCCCCNc1c2c(nc3ccccc13)CCCC2)NCCc1c[nH]c2ccccc12
- IC50 (Acetylcholinesterase [1]): 1 nM
- IC50 (Acetylcholinesterase [2]): 0.5 nM
- IC50 (Cholinesterase): 6.8 nM
- IC50 (Butyrylcholinesterase): 0.95 nM
- Papp (in vitro): 92 nm/s

Structure (SMILES): COc1ccc2[nH]cc(CCNC(=O)CCCCCNc3c4c(nc5cc(Cl)ccc35)CCCC4)c2c1
- IC50 (Acetylcholinesterase [1]): 12 nM
- IC50 (Butyrylcholinesterase): 55 nM

Structure (SMILES): O=C(CCCCCNc1c2c(nc3ccccc13)CCCC2)NCCc1c[nH]c2ccccc12
- IC50 (Acetylcholinesterase [1]): 4 nM
- IC50 (Butyrylcholinesterase): 12 nM
- Papp (in vitro): 110 nm/s

Structure (SMILES): COc1ccc2[nH]cc(CCNC(=O)CCCCCNc3c4c(nc5cccc(Cl)c35)CCCC4)c2c1
- IC50 (Acetylcholinesterase [1]): 25 nM
- IC50 (Butyrylcholinesterase): 22 nM
- Papp (in vitro): 89 nm/s

Structure (SMILES): O=C(CCCCCNc1c2c(nc3cccc(Cl)c13)CCCC2)NCCc1c[nH]c2ccccc12
- IC50 (Acetylcholinesterase [1]): 65 nM
- IC50 (Acetylcholinesterase [2]): 0.87 nM
- IC50 (Cholinesterase): 23 nM
- IC50 (Butyrylcholinesterase): 15 nM
- Papp (in vitro): 52 nm/s

Structure (SMILES): O=C(CCCCCNc1c2c(nc3ccccc13)CCCC2)NCCc1c[nH]c2ccc(O)cc12
- IC50 (Acetylcholinesterase [1]): 35 nM
- IC50 (Acetylcholinesterase [2]): 0.45 nM
- IC50 (Cholinesterase): 1 nM
- IC50 (Butyrylcholinesterase): 3.5 nM
- Papp (in vitro): 20 nm/s

Structure (SMILES): COc1ccc2[nH]cc(CCNC(=O)CCCCCCNc3c4c(nc5cc(Cl)cc(Cl)c35)CCCC4)c2c1
- IC50 (Acetylcholinesterase [1]): 5 nM
- IC50 (Acetylcholinesterase [2]): 0.04 nM
- IC50 (Cholinesterase): 25 nM
- IC50 (Butyrylcholinesterase): 100 nM

Structure (SMILES): O=C(CCCCCCNc1c2c(nc3cc(Cl)ccc13)CCCC2)NCCc1c[nH]c2ccccc12
- IC50 (Acetylcholinesterase [1]): 0.2 nM
- IC50 (Acetylcholinesterase [2]): 0.1 nM
- IC50 (Cholinesterase): 35 nM
- IC50 (Butyrylcholinesterase): 8.1 nM

Structure (SMILES): COc1ccc2[nH]cc(CCNC(=O)CCCCCCNc3c4c(nc5ccccc35)CCCC4)c2c1
- IC50 (Acetylcholinesterase [1]): 2.3 nM
- IC50 (Acetylcholinesterase [2]): 0.65 nM
- IC50 (Cholinesterase): 3 nM
- IC50 (Butyrylcholinesterase): 2.5 nM
- Papp (in vitro): 86 nm/s

Structure (SMILES): O=C(CCCCCNc1c2c(nc3cc(Cl)ccc13)CCCC2)NCCc1c[nH]c2ccccc12
- IC50 (Acetylcholinesterase [1]): 2 nM
- IC50 (Butyrylcholinesterase): 5.2 nM
- Papp (in vitro): 77 nm/s

Structure (SMILES): COc1ccc2[nH]cc(CCNC(C)=O)c2c1 [MELATONIN]
- IC50 (Acetylcholinesterase [1]): > 100 nM
- IC50 (Butyrylcholinesterase): > 100 nM
